For three compounds, Activity and inhibition results are on record in ChEMBL document CHEMBL1140678, “New triterpene glucosides, oligoporins A-C, from Oligoporus tephroleucus protect DNA from Fenton reaction” (Bioorg Med Chem Lett, 2007).

Assay [1] relates to Escherichia coli. Nature of the assay: Inhibition of fenton reaction-induced pBR322 supercoiled DNA damage. The format is functional.
Assay [2] has as its system Escherichia coli. Nature of the assay: Inhibition of fenton reaction-induced pBR322 supercoiled DNA damage at 1 mM. The assay is classed as functional.

Turning to `C/C(=C/CC[C@@H](C)[C@H]1CC[C@@]2(C)C3=CC[C@H]4C(C)(C)C(=O)CC[C@]4(C)C3=C[C@@H](O[C@@H]3O[C@H](CO)[C@@H](O)[C@H](O)[C@H]3O)[C@]12C)C(=O)O`, the Activity entry in the assay on Escherichia coli [1] is “Dose-dependent effect”.

Take `C/C(=C/CC[C@@H](C)[C@H]1CC[C@@]2(C)C3=CC[C@H]4C(C)(C)[C@H](O)CC[C@]4(C)C3=C[C@@H](O[C@@H]3O[C@H](CO)[C@@H](O)[C@H](O)[C@H]3O)[C@]12C)C(=O)O`: in the assay with Escherichia coli [1], the Activity entry was “Dose-dependent effect”. On to `C/C(=C/CC[C@@H](C)[C@H]1CC[C@@]2(C)C3=C(C[C@@H](O[C@@H]4O[C@H](CO)[C@@H](O)[C@H](O)[C@H]4O)[C@]12C)[C@@]1(C)CC[C@@H](O)C(C)(C)[C@@H]1CC3=O)C(=O)O`, for which the inhibition – broadly, the change of the read-out against control, counted positive when it falls – with Escherichia coli [2] is 90%. In addition, the Activity result with Escherichia coli [1] is “Dose-dependent effect”.
